From patent publication US7579356B2, “Thia-tetraazaacenaphthylene kinase inhibitors” (Janssen Pharmaceutica NV, priority 2005, dated 2009)

How the values were obtained:
HER-2 = target: T1, HER-2 (Homo sapiens, UniProt P04626); test: HER-2 Kinase Assay; assay type: biochemical; conditions: value in parentheses
T1 construct: His6 with thrombin site (N); purchased Proqinase (Freiburg, Germany)
Procedure, shortened: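 Read-out was scintillation counting of 33P incorporated into biotinylated polyGluTyr captured on streptavidin plates. Reactions ran 1 h at 30 °C with GST-fused HER-2 residues 679–1255, 1 μM ATP, Mn2+ and Mg2+ at pH 7.5; data given as percent inhibition at 1 μM, with IC50 where determined.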

Lyn kinase (human) = target: T2, Lyn kinase (human) (Homo sapiens, UniProt P07948); test: Lyn Kinase Assay; assay type: biochemical; conditions: test concentration of 2 μM
T2 construct: purchased Upstate Biotechnology, Lake Placid, N.Y
T2 sequence (P07948 whole entry): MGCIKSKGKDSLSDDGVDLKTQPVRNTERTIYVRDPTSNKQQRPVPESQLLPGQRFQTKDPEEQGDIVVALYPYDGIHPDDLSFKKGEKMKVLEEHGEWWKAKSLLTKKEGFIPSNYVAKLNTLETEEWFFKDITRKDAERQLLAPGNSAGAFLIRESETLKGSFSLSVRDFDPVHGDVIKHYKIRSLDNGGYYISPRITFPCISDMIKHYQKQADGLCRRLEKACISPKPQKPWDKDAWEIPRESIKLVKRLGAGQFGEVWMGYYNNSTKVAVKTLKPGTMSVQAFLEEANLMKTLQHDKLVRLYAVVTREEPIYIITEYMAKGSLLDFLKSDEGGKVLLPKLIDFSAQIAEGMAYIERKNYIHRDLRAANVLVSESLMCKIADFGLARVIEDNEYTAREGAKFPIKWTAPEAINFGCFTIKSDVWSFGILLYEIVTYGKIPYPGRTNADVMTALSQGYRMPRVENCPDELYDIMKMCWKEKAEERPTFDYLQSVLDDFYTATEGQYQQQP
Procedure, shortened: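 Radiometric filter-binding assay with recombinant human Lyn, poly(Glu,Tyr) substrate (0.1 mg/mL final), 5 μM ATP plus γ-33P-ATP in MOPS pH 7.5/Mg acetate buffer; 40 min at 30 °C, stopped with phosphoric acid, counted by scintillation. Reported as percent inhibition at 2 μM, with IC50 (μM) where determined.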

c-Src kinase (human) = target: T3, c-Src kinase (human) (Homo sapiens, UniProt P12931); test: c-Src Kinase Assay; assay type: biochemical; conditions: test concentration of 2 μM; multiple values are separate assay results
T3 construct: purchased Upstate Biotechnology, Lake Placid, N.Y
T3 sequence (P12931 whole entry): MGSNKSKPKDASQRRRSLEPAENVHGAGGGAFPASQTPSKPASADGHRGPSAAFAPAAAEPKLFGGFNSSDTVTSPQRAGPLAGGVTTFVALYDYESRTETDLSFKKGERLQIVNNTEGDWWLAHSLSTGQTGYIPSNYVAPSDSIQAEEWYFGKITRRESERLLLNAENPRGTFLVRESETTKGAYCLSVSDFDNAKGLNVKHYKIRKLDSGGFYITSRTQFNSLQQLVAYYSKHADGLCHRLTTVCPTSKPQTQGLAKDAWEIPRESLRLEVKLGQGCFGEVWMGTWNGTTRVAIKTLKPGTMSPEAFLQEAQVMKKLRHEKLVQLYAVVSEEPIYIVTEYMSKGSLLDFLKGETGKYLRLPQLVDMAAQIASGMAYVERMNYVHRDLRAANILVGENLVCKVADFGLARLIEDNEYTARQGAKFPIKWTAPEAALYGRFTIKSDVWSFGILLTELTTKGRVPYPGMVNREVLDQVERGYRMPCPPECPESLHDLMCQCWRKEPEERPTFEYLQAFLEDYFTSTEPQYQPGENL
Procedure, shortened: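 Inhibition was read as 33P incorporation, counted on P30 filtermats, after a 40 min, 30° C reaction. Human c-Src acted on 100 μM Cdc2 peptide with 5 μM ATP (final), pH 7.0 MOPS/MgCl2. Values are percent inhibition at 2 μM compound, or IC50 where determined.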

EGFR = target: T4, EGFR (Homo sapiens, UniProt P00533); test: EGFR Kinase Assay; assay type: biochemical; conditions: for IC50: GST-EGFR, ATP 5 μM; for inhibition at 2 µM: test concentration of 2 μM, compounds without an IC50, read-out: EGFR inhibition in percent
T4 construct: The intracellular portion of EGFR started at nucleotide 2189 (corresponding to amino acid 667) and ended at the termination codon; made in house; host or cells: Sf9 insect cells (baculovirus)
T4 sequence (P00533 669-1210 limits assumed): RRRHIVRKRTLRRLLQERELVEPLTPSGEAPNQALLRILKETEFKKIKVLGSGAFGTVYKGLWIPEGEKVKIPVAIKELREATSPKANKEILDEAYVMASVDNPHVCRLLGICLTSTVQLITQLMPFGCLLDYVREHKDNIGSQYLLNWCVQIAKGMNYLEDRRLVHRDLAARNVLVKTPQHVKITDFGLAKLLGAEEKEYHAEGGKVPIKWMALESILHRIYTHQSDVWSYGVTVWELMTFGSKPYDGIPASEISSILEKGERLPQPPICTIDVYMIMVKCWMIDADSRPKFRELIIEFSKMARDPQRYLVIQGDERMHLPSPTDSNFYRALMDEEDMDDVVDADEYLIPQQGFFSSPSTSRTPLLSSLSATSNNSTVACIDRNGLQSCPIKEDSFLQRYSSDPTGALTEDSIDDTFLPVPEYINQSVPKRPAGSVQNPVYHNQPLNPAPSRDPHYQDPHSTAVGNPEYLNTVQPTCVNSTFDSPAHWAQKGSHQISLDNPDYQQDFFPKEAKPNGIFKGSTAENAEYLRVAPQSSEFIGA
Procedure, shortened: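 Potency came from triplicate 16-point half-log titrations starting at 200 uM, with IC50 fitted from % inhibition against log concentration, or % inhibition at 2 μM otherwise. Reaction: Sf9-made GST–EGFR cytoplasmic region (aa 667 onward), biotin-polyGluTyr, 5 μM ATP with 33P tracer, pH 8.0 Tris/Mg/vanadate/DTT, 30 °C for 1 h; captured on streptavidin Flashplates and counted.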

HER-4 = target: T5, HER-4 (Homo sapiens, UniProt Q15303); test: HER-4 Kinase Assay; assay type: biochemical
T5 construct: His6 with thrombin site (N); purchased Proqinase (Freiburg, Germany)
T5 sequence (Q15303 676-1307): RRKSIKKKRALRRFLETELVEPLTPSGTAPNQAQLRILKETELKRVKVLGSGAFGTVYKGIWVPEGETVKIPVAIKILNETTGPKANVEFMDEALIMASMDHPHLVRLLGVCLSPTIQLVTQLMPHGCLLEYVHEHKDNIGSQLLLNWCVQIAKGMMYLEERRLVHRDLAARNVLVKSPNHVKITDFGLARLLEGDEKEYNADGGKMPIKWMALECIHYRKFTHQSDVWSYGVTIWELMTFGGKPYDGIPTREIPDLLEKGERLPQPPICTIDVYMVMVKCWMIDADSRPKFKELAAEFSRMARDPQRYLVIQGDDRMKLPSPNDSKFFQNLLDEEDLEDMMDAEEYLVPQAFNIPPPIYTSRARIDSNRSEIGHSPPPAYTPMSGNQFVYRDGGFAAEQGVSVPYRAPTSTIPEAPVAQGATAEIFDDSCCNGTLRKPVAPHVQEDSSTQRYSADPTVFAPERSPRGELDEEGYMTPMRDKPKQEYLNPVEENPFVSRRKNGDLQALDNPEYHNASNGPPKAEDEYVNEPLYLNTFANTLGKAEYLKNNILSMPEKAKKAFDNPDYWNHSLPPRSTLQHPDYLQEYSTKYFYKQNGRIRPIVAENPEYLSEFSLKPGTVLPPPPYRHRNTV
Procedure: The HER-4 kinase used was purified at Proqinase (Freiburg, Germany) from a construct that consisted of a fusion of GST (Glutathione-S-Transferase), HIS6-Thrombin and the nucleotides encoding amino acids 676 to 1307 of HER-4 (Accession NM 005235).
A mixture of a 10× kinase reaction buffer (600 mM Hepes at pH 7.5, 30 mM Magnesium Chloride, 0.03 mM Sodium Vanadate and 500 μg/mL PEG 20,000), DTT (1.2 mM final from a 10 mM) stock), ATP (1 μM from a 10 mM stock), biotinylated polyGluTyr (1.5 ng/μL final from stock of 1 μg/μL) prepared by Upstate Biotechnologies, Lake Placid, N.Y.), Manganese Chloride (3 mM final from a 1 M stock), γ-^33P-ATP (10 μCl/mL stock) and water (70 μL/well) was added to each well of a Streptavidin Flashplate (Cat. # SMP103, NEN, Boston, Mass.).
Test compound stock (1 μL) was added to the appropriate wells. Diluted GST HER-4 kinase (6.7 ng/μL diluted into 50 mM Tris-HCl at pH 8.0 and 0.1% bovine serum albumin) (30 μL) was added (total volume of 200 ng/well) to initiate the reactions.
The reaction plates were incubated at 30° C. for 1 hr. The reaction was terminated by aspirating the reaction mixture from the plate wells and washing the wells three times with a 1×PBS stop buffer (300 μL) and 100 mM EDTA. After the final wash, the same stop buffer (200 μL) was again added to the wells. The plates were then sealed and read on the TopCount scintillation counter.
For a series of test concentrations, the IC50 was derived by graphing percent inhibition against the log of the concentrations tested for a given compound.

N87 cells = test: In Vivo Models - Inhibition of Tumor Growth, N87; conditions: Mus musculus, po, 720 h, 100 mg/kg, oral daily for 30 days, athymic mice; read-out: percent inhibition N87
Procedure: In Vivo Models—Inhibition of Tumor Growth
The ability of test compounds to inhibit unregulated growth of human tumor cells in vivo was evaluated by implanting human tumor cells into the hindflank of athymic mice, administering a test compound and then quantifying any change in tumor size.
Human epidermoid A431 carcinoma, N87 cells and BT474 cells were implanted subcutaneously into the hindflank of female athymic mice (Charles River) and allowed to grow for 6-10 days. After a measurable tumor was established (as determined by baseline caliper measurement), the animal was administered an oral dose of the test compound daily for a period of 30 days. Tumor size was measured every five days and the degree of inhibition was determined by comparing drug-treated animals to vehicle-treated animals.
Variations of this method are intended to include intraperitoneal injection or intravenous infusion as the route of administration and administration of the test compound either alone or in a combination therapy.
The inhibition of tumor growth values are shown in Table 8 at various test concentrations, as indicated. For compounds with multiple values at one test concentration, each value represents a separate assay result.

T1 sequence (P04626 679-1255): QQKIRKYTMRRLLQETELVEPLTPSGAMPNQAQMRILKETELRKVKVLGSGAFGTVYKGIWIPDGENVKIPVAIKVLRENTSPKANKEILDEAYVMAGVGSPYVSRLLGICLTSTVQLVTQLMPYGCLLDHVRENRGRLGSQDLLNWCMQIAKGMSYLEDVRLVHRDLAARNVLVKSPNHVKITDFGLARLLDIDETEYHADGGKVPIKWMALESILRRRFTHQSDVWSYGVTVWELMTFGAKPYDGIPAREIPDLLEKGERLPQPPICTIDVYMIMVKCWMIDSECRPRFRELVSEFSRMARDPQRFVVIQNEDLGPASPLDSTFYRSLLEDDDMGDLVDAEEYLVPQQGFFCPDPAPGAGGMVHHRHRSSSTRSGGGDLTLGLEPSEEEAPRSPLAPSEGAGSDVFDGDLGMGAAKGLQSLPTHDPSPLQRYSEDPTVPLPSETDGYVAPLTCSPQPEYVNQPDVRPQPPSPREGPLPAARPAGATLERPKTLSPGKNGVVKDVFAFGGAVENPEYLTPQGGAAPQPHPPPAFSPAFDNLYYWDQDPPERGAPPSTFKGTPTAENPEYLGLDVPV

Row | SMILES | IC50 (HER-2) [nM] | inhibition at 2 µM (Lyn kinase (human)) [%] | inhibition at 2 µM (c-Src kinase (human)) [%] | IC50 (EGFR) [nM] | inhibition at 2 µM (EGFR) [%] | IC50 (HER-4) [nM] | inhibition in vivo at 100 mg/kg (N87 cells) [%]
1 | COc1cc(NC(=O)c2sc3ncnc4c3c2NC(=O)N4c2ccc(Cc3ccccc3)cc2)ccc1OCCN1CCCCC1 [Cpd 163, 5-(4-benzyl-phenyl)-4-oxo-4,5-dihydro-3H-1-thia-3,5,6,8-tetraaza-acenaphthylene-2-carboxylic acid [3-methoxy-4-(2-piperidin-1-yl-ethoxy)-phenyl]-amide] | 278 | 55 | 26 | 18 |  |  | 
2 | O=C(Nc1ccc(CN2CCCCC2)cc1)c1sc2ncnc3c2c1NC(=O)N3c1ccc(Cc2ccccc2)cc1 [Cpd 164, 5-(4-benzyl-phenyl)-4-oxo-4,5-dihydro-3H-1-thia-3,5,6,8-tetraaza-acenaphthylene-2-carboxylic acid (4-piperidin-1-ylmethyl-phenyl)-amide] | 103 | 35 | 25 | 11 |  |  | 
3 | O=C(Nc1ccc(CN2CCOCC2)cc1)c1sc2ncnc3c2c1NC(=O)N3c1ccc(Cc2ccccc2)cc1 [Cpd 165, 5-(4-benzyl-phenyl)-4-oxo-4,5-dihydro-3H-1-thia-3,5,6,8-tetraaza-acenaphthylene-2-carboxylic acid (4-morpholin-4-ylmethyl-phenyl)-amide] | 157 | 39 | 29 | 23 |  |  | 
4 | O=C(Nc1ccc(CCN2CCCCC2)cc1)c1sc2ncnc3c2c1NC(=O)N3c1ccc(Oc2ccccc2)cc1 [Cpd 166, 4-oxo-5-(4-phenoxy-phenyl)-4,5-dihydro-3H-1-thia-3,5,6,8-tetraaza-acenaphthylene-2-carboxylic acid [4-(2-piperidin-1-yl-ethyl)-phenyl]-amide] | 171 | 51 | 22 | 21 |  |  | 
5 | COc1cc(NC(=O)c2sc3ncnc4c3c2NC(=O)N4c2ccc(Oc3ccccc3)cc2)ccc1OCCN1CCOCC1 [Cpd 167, 4-oxo-5-(4-phenoxy-phenyl)-4,5-dihydro-3H-1-thia-3,5,6,8-tetraaza-acenaphthylene-2-carboxylic acid [3-methoxy-4-(2-morpholin-4-yl-ethoxy)-phenyl]-amide] | 129 | 51 | 35 | 20 |  |  | 
6 | O=C(O)c1sc2ncnc3c2c1NC(=O)N3c1ccc(Oc2ccccc2)cc1 [Cpd 168, 4-oxo-5-(4-phenoxy-phenyl)-4,5-dihydro-3H-1-thia-3,5,6,8-tetraaza-acenaphthylene-2-carboxylic acid] | 12200 | 28 | -21 | 452 |  |  | 
7 | C[C@H](c1ccccc1)N1C(=O)Nc2c(C(=O)O)sc3ncnc1c23 [Cpd 170, 4-oxo-5-[(1R)-1-phenyl-ethyl]-4,5-dihydro-3H-1-thia-3,5,6,8-tetraaza-acenaphthylene-2-carboxylic acid] | > 100000 | 12 | 4 |  | 11 |  | 
8 | C[C@H](c1ccccc1)N1C(=O)Nc2c(C(=O)NC3CCN(C)CC3)sc3ncnc1c23 [Cpd 173, 4-oxo-5-[(1R)-1-phenyl-ethyl]-4,5-dihydro-3H-1-thia-3,5,6,8-tetraaza-acenaphthylene-2-carboxylic acid (1-methyl-piperidin-4-yl)-amide] | > 100000 | -5 | -8 |  | -3 |  | 
9 | O=C(Nc1ccc(CN2CCOCC2)cc1)c1sc2ncnc3c2c1NC(=O)N3c1ccc2c(cnn2Cc2cccc(F)c2)c1 [Cpd 175, 5-[1-(3-fluoro-benzyl)-1H-indazol-5-yl]-4-oxo-4,5-dihydro-3H-1-thia-3,5,6,8-tetraaza-acenaphthylene-2-carboxylic acid (4-morpholin-4-ylmethyl-phenyl)-amide] | 515 | 0 | -1 | 130 |  |  | 
10 | COc1cc(NC(=O)c2sc3ncnc4c3c2NC(=O)N4c2ccc(Oc3ccccc3)cc2)ccc1CN1CCOCC1 [Cpd 176, 4-oxo-5-(4-phenoxy-phenyl)-4,5-dihydro-3H-1-thia-3,5,6,8-tetraaza-acenaphthylene-2-carboxylic acid (3-methoxy-4-morpholin-4-ylmethyl-phenyl)-amide] | 12 |  |  | 22 |  | 47 | 
11 | Cc1cc(NC(=O)c2sc3ncnc4c3c2NC(=O)N4c2ccc(Oc3ccccc3)cc2)ccc1CN1CCOCC1 [Cpd 232, 4-oxo-5-(4-phenoxy-phenyl)-4,5-dihydro-3H-1-thia-3,5,6,8-tetraaza-acenaphthylene-2-carboxylic acid (3-methyl-4-morpholin-4-ylmethyl-phenyl)-amide] | 28 |  |  | 41 |  |  | 30.3
12 | CN(C)c1cc(NC(=O)c2sc3ncnc4c3c2NC(=O)N4c2ccc(Oc3ccccc3)cc2)ccc1CN1CCOCC1 [Cpd 257, 4-oxo-5-(4-phenoxy-phenyl)-4,5-dihydro-3H-1-thia-3,5,6,8-tetraaza-acenaphthylene-2-carboxylic acid (3-dimethylamino-4-morpholin-4-ylmethyl-phenyl)-amide] | 24 |  |  | 96 |  |  | 71.2
13 | NC1CCN(Cc2ccc(NC(=O)c3sc4ncnc5c4c3NC(=O)N5c3ccc(Oc4ccccc4)cc3)cc2)CC1 [Cpd 259, 4-oxo-5-(4-phenoxy-phenyl)-4,5-dihydro-3H-1-thia-3,5,6,8-tetraaza-acenaphthylene-2-carboxylic acid [4-(4-amino-piperidin-1-ylmethyl)-phenyl]-amide] | 11 |  |  | 21 |  |  | 46.8
14 | O=C(Nc1ccc(CN2CCOCC2)c(O)c1)c1sc2ncnc3c2c1NC(=O)N3c1ccc(Oc2ccccc2)cc1 [Cpd 262, 4-oxo-5-(4-phenoxy-phenyl)-4,5-dihydro-3H-1-thia-3,5,6,8-tetraaza-acenaphthylene-2-carboxylic acid (3-hydroxy-4-morpholin-4-ylmethyl-phenyl)-amide] | 19 |  |  | 35 |  |  | 70.5
15 | O=C(Nc1ccc(CN2CCC(F)(F)CC2)cc1)c1sc2ncnc3c2c1NC(=O)N3c1ccc(Oc2ccccc2)cc1 [Cpd 263, 4-oxo-5-(4-phenoxy-phenyl)-4,5-dihydro-3H-1-thia-3,5,6,8-tetraaza-acenaphthylene-2-carboxylic acid [4-(4,4-difluoro-piperidin-1-ylmethyl)-phenyl]-amide] | 523 |  |  |  | 83 |  | 18.1
